The target of one test is T1, human TTK (Homo sapiens, UniProt P33981).
T1 construct: amino terminal GST fusion of full length human TTK; purchased Invitrogen
T1 sequence (P33981 1-857): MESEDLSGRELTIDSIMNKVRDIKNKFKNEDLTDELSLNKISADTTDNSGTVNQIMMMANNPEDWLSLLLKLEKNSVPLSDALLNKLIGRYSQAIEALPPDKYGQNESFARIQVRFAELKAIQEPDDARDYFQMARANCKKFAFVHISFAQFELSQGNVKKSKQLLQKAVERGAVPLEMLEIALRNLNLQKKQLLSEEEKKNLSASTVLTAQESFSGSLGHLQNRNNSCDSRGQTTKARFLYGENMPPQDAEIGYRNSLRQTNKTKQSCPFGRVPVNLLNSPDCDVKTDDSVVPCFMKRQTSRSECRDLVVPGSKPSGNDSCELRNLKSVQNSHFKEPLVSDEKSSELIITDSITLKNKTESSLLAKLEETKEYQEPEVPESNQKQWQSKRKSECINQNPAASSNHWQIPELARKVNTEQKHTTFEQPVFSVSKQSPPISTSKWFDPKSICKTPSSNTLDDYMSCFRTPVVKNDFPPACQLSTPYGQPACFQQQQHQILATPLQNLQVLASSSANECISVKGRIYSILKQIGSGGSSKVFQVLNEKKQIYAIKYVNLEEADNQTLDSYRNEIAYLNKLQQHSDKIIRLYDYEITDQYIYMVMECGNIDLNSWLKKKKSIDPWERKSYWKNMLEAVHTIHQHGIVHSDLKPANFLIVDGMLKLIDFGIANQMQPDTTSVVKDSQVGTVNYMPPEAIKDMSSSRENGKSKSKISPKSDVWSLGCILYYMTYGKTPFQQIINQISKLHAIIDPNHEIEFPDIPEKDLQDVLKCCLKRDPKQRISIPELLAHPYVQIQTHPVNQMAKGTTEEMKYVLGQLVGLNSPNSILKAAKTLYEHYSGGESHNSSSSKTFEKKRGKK
In words: TTK inhibition assay (indirect ELISA). The format is biochemical. The conditions noted are these: GST-TTK 0.68 nM, 16 μM ATP; read-out: IC50 Ranges TTK.

Test [1] concerns PA-1 ovarian cancer cells. In words: Cell growth inhibition, Sulforhodamine B assay, PA-1. Format: cell-based. The conditions noted are these: 120 h, 5 days culture, SRB assay, read-out: Cell Line GI50 Range PA-1.
In test [2] the test system is MDA-MB-468 breast cancer cells. In words: Cell growth inhibition, Sulforhodamine B assay, MDA-MB-468. Format: cell-based. The conditions noted are these: Homo sapiens, 120 h, 5 days culture, SRB assay, read-out: Cell Line GI50 Range MDA-MB-468.
For a further test, the system named is HT29 colon cancer cells. In words: Cell growth inhibition, Sulforhodamine B assay, HT29. The format is cell-based. As to conditions: Homo sapiens, HT-29, 120 h, 5 days culture, SRB assay, read-out: Cell Line GI50 Range HT29.
The test system of test [3] is HCT116 colon cancer cells. In words: Cell growth inhibition, Sulforhodamine B assay, HCT116. The format is cell-based. The conditions noted are these: Homo sapiens, HCT-116, 120 h, 5 days culture, SRB assay, read-out: Cell Line GI50 Range HCT116. For orientation: The SRB assay estimates cell density from bound dye.
Method: (§1) Breast cancer cells (MDA-MB-231, MDA-MB-468), colon cancer cells (HCT116, HT29) and ovarian cancer cells (PA-1, OVCAR-3) were seeded (1000 to 4000 in 80 μl per well depending on the cell growth rate) into 96 well plates 24 hours before compound overlay. Compounds were prepared as 10 mM stock solutions in 100% DMSO which were diluted with DMEM (Dulbecco's Modified Eagle's Medium) cell growth Medium (Invitrogen, Burlington, ON, Canada) containing 10% FBS (Fetal Bovine Serum) to concentrations ranging from 50 nM to 250 μM. Aliquots (20 μl) from each concentration were overlaid to 80 μl of the pre-seeded cells in the 96 well plates to make final concentrations of 10 nM to 50 μM. The cells were cultured for 5 days before the Sulforhodamine B assay (SRB) was performed to determine the compound's cell growth inhibition activity.
(§2) Sulforhodamine B (purchased from Sigma, Oakville, ON, Canada) is a water-soluble dye that binds to the basic amino acids of the cellular proteins. Thus, colorimetric measurement of the bound dye provides an estimate of the total protein mass that is related to the cell number. the cells are fixed in situ by gently aspirating off the culture media and adding 50 μl ice cold 10% Trichloroacetic Acid (TCA) per well and incubate at 4° C. for 30-60 min, The plates are washed with water five times and allowed to air dry for 5 min. Addition of 50 μl 0.4% (w/v) SRB solution in 1% (v/v) acetic acid to each well and incubatation for 30 min at RT completes the staining reaction. Following staining, plates are washed four times with 1% acetic acid to remove unbound dye and then allowed to air dry for 5 min. The stain is solubilized with 100 μl of 10 mM Tris pH 10.5 per well. Absorbance is read at 570 nm.
(§3) The percentage (%) of relative growth inhibition was calculated by comparing to DMSO treated only cells (100%). […] The GI50 was calculated using GraphPad PRISM software (GraphPad Software, Inc., San Diego, Calif., USA).
The target in the next test is T2, human PLK4 (Homo sapiens, UniProt O00444).
T2 construct: amino terminal GST fusion of residues 1-391 of human PLK4; made in house; host or cells: E. coli
T2 sequence (O00444 1-391): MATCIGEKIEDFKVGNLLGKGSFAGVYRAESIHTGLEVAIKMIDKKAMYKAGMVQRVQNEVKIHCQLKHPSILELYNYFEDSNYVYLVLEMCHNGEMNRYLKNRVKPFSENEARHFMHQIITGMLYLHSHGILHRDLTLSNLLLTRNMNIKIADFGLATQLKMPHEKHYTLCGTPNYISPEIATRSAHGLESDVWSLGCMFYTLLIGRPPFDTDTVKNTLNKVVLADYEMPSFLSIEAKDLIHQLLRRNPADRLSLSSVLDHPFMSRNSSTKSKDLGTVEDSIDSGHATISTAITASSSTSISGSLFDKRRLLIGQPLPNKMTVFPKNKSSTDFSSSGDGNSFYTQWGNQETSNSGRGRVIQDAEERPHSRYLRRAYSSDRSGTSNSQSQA
In words: PLK4 inhibition assay (indirect ELISA). The format is biochemical. As to conditions: GST-PLK4 4 nM, 15 μM ATP; read-out: IC50 Ranges PLK4. An outline of the steps:
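Dephosphorylated GST-tagged human PLK4 (residues 1-391, E. coli), 4 nM, preincubated 15 min with compound, then reacted 30 min with 15 μM ATP on MBP-coated plates (50 mM HEPES pH 7.5, 10 mM MgCl2, 0.01% Brij 35). Phospho-MBP detected by antibody ELISA at 450 nm. Tested at 10 μM or 10-point titrations; IC50 from 4-parameter logistic fit.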

A further test concerns the target T3, Aurora B (Homo sapiens, UniProt Q96GD4).
T3 construct: purchased Invitrogen PV3970
In words: Aurora B inhibition assay (Z-Lyte). The format is biochemical. The conditions noted are these: 28 nM Aurora B, 128 μM ATP; read-out: IC50 Ranges Aurora B. The procedure:
Aurora B inhibition was determined using the Z-Lyte assay kit from Invitrogen. The assay was performed using the recommended manufacturer's instructions with 128 μM ATP and 28 nM Aurora B (Invitrogen cat #PV3970). The % inhibition values were determined according to the manufacturer's directions and IC50 values were obtained using a non-linear 4 point logistic curve fit (XLfit4, IDBS)

The test system of test [4] is MDA-MB-231 breast cancer cells. In words: Cell growth inhibition, Sulforhodamine B assay, MDA-MB-231. As to conditions: Homo sapiens, 120 h, 5 days culture, SRB assay, read-out: Cell Line GI50 Range MDA-MB-231. The format is cell-based.
Method: as §1, §2, §3
In test [5] the test system is OVCAR-3 ovarian cancer cells. In words: Cell growth inhibition, Sulforhodamine B assay, OVCAR-3. The format is cell-based. The conditions noted are these: Homo sapiens, 120 h, 5 days culture, SRB assay, read-out: Cell Line GI50 Range OVCAR-3.

T3 sequence (Q96GD4 whole entry): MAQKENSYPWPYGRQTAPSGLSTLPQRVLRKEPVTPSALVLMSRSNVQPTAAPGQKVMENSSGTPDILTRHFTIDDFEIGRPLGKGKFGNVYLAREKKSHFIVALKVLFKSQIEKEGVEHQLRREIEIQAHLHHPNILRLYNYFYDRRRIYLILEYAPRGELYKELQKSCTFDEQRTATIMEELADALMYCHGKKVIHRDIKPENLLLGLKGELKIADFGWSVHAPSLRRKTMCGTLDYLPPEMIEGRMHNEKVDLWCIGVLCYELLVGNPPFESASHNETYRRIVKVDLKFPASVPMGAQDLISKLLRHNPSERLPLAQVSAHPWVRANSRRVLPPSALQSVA
Method for human TTK: Active TTK was purchased from Invitrogen as an amino terminal GST fusion of full length human TTK.
TTK activity was measured using an indirect ELISA detection system. GST-TTK (0.68 nM) was incubated in the presence of 16 μM ATP (Sigma cat#A7699), 50 mM Hepes pH 7.2, 1 mM EGTA, 10 mM MgCl2, and 0.1% Pluronic in a 96 well microtitre plate pre-coated with amino terminal 6 histidine, sumo tagged TTK (amino acid residues 1-275). The reaction was allowed to proceed for 30 minutes, followed by 5 washes of the plate with Wash Buffer (phosphate buffered saline supplemented with 0.2% Tween 20), and incubation for 30 minutes with a 1:3000 dilution of primary antibody (Cell Signaling cat#9381). The plate was washed 5 times with Wash Buffer, incubated for 30 minutes in the presence of secondary antibody coupled to horse radish peroxidase (BioRad cat#1721019, 1:3000 concentration), washed an additional 5 times with Wash Buffer, and incubated in the presence of TMB substrate (Sigma cat#T0440). The colourimetric reaction was allowed to continue for 5 minutes, followed by addition of stop solution (0.5 N sulphuric acid), and quantified by detection at 450 nm with either a monochromatic or filter based plate reader (Molecular Devices M5 or Beckman DTX880, respectively).
Compounds were pre-incubated in the presence of enzyme for 5 minutes prior to addition of ATP and the activity remaining quantified using the above described activity assay. The % Inhibition of a compound was determined using the following formula; % Inhibition=100×(1−(experimental value−background value)/(high activity control−background value)). The IC50 value was determined using a non-linear 4 point logistic curve fit (XLfit4, IDBS) with the formula; (A+(B/(1+((x/C)̂D)))), where A=background value, B=range, C=inflection point, D=curve fit parameter.

As to `O=C(NC(c1ccccc1)C1CCC1)c1ccc2[nH]nc(-c3ccc(N4CCC(O)CC4)cc3)c2c1` (stereo not drawn) [Example A100, N-(cyclobutyl(phenyl)methyl)-3-(4-(4-hydroxypiperidin-1-yl)phenyl)-1H-indazole-5-carboxamide], the half-inhibitory concentration (IC50) at human TTK, on human PLK4 and on Aurora B was no more than 5 µM in each case. Moreover, the GI50 (in test [1]; in [2]; with HT29 colon cancer cells; in [3]; in [4]) was no more than 5 µM throughout.
Regarding `O=C(Nc1ccc2[nH]nc(-c3ccc(OC4CCN(CCF)CC4)cc3)c2c1)C(c1ccsc1)N1CCCC1` (stereo not drawn) [Example A102, N-(3-(4-((1-(2-fluoroethyl)piperidin-4-yl)oxy)phenyl)-1H-indazol-5-yl)-2-(pyrrolidin-1-yl)-2-(thiophen-3-yl)acetamide], the IC50 at human TTK, at human PLK4 and on Aurora B was no more than 5 µM throughout. Further, the GI50 (commonly the concentration giving 50% growth inhibition) is no more than 5 µM in test [1]; no more than 5 µM in [2]; no more than 5 µM with HT29 colon cancer cells; 5 to 20 µM in test [5]; no more than 5 µM in test [3].
`O=C(Nc1ccc2[nH]nc(-c3ccc(N4CCC(O)CC4)cc3)c2c1)C(c1ccccc1)C1CC1` (stereo not drawn) [Example A103, 2-cyclopropyl-N-(3-(4-(4-hydroxypiperidin-1-yl)phenyl)-1H-indazol-5-yl)-2-phenylacetamide]: the IC50 on human TTK, at human PLK4 and at Aurora B was no more than 5 µM throughout. Also, the GI50 (in test [1]; in test [2]; with HT29 colon cancer cells; in test [3]; in [4]) was no more than 5 µM each time.
`COCCN1CCC(Oc2ccc(-c3n[nH]c4ccc(NC(=O)[C@H](OC)c5ccccc5)cc34)cc2)CC1` [Example A107, (R)-2-methoxy-N-(3-(4-((1-(2-methoxyethyl)piperidin-4-yl)oxy)phenyl)-1H-indazol-5-yl)-2-phenylacetamide]: the IC50 at human TTK, on human PLK4 and at Aurora B was no more than 5 µM each time. Besides, the GI50 is no more than 5 µM in test [1]; no more than 5 µM in test [2]; no more than 5 µM with HT29 colon cancer cells; no more than 5 µM in [3]; 5 to 20 µM in [4].
As to `COC1CCN(c2ccc(-c3n[nH]c4ccc(NC(=O)C(c5ccsc5)N5CCCC5)cc34)cc2)CC1` (stereo not drawn) [Example A116, N-(3-(4-(4-methoxypiperidin-1-yl)phenyl)-1H-indazol-5-yl)-2-(pyrrolidin-1-yl)-2-(thiophen-3-yl)acetamide], the IC50 on human TTK, at human PLK4 and at Aurora B was no more than 5 µM in each case. For the same compound, the GI50 (in test [1]; in test [2]; in the test on HT29 colon cancer cells; in test [3]; in [4]) was no more than 5 µM throughout.
Consider `CN1CCC(Oc2ccc(-c3n[nH]c4ccc(C(=O)NC(c5ccsc5)C5CCC5)cc34)cc2)CC1` (stereo not drawn) [Example A121], for which the IC50 at human TTK, on human PLK4 and on Aurora B was no more than 5 µM each time. In addition, the concentration for 50% growth inhibition (GI50) (in test [1]; in [2]; in the test on HT29 colon cancer cells; in [5]; in [3]) was no more than 5 µM each time.
Turning to `CC[C@@H](NC(=O)c1ccc2[nH]nc(-c3ccc(OC4CCN(C5COC5)CC4)cc3)c2c1)c1ccccc1Cl` [Example A192, (R)—N-(1-(2-chlorophenyl)propyl)-3-(4-((1-(oxetan-3-yl)piperidin-4-yl)oxy)phenyl)-1H-indazole-5-carboxamide], the IC50 on human TTK, at human PLK4 and at Aurora B was no more than 5 µM in each case. The GI50 in test [1], in test [2], in test [5] and in test [3] was no more than 5 µM each time.
In the case of `COc1cc(-c2n[nH]c3ccc(C(=O)NC(c4ccccc4)C4CC4)cc23)ccc1OC1CCN(C2COC2)CC1` (stereo not drawn) [Example A194, N-(cyclopropyl(phenyl)methyl)-3-(3-methoxy-4-((1-(oxetan-3-yl)piperidin-4-yl)oxy)phenyl)-1H-indazole-5-carboxamide], the IC50 on human TTK, on human PLK4 and at Aurora B was no more than 5 µM throughout. Also, the GI50 in test [1], in [2], in [5], in [3] and in test [4] was no more than 5 µM each time.
For the compound `CN1CCC(Oc2ccc(-c3n[nH]c4ccc(C(=O)NC(c5ccccn5)C5CC5)cc34)cc2Cl)CC1` (stereo not drawn) [Example A198, 3-(3-chloro-4-((1-methylpiperidin-4-yl)oxy)phenyl)-N-(cyclopropyl(pyridin-2-yl)methyl)-1H-indazole-5-carboxamide], the IC50 on human TTK, at human PLK4 and on Aurora B was no more than 5 µM in each case. Further, the GI50 in test [1], in test [2], in [5], in test [3] and in test [4] was no more than 5 µM in each case.
As for `CN1CCC(Oc2ccc(-c3n[nH]c4ccc(C(=O)NC(c5ccccc5Cl)C5CCCC5)cc34)cc2)CC1` (stereo not drawn) [Example A199, N-((2-chlorophenyl)(cyclopentyl)methyl)-3-(4-((1-methylpiperidin-4-yl)oxy)phenyl)-1H-indazole-5-carboxamide], the IC50 on human TTK, on human PLK4 and on Aurora B was no more than 5 µM throughout. Also, the concentration for 50% growth inhibition (GI50) in [1], in [2], in test [5], in [3] and in test [4] was no more than 5 µM each time.
`CN1CCC(Oc2ccc(-c3n[nH]c4ccc(C(=O)N[C@H](CCO)c5ccccc5)cc34)cc2Cl)CC1` [Example A202, (R)-3-(3-chloro-4-((1-methylpiperidin-4-yl)oxy)phenyl)-N-(3-hydroxy-1-phenylpropyl)-1H-indazole-5-carboxamide]: the 50% inhibitory concentration (IC50) at human TTK, on human PLK4 and at Aurora B was no more than 5 µM each time. Also, the GI50 in [1], in [2], in test [5], in [3] and in test [4] was no more than 5 µM throughout.
